Assay [1] addresses T1, human 5-hydroxytryptamine-2C (h5-HT2C) receptor (Homo sapiens, UniProt P28335).
T1 construct: expressed in transfected cells; host or cells: CHO (Chinese Hamster Ovary) cells; membranes
T1 sequence (P28335 33-458): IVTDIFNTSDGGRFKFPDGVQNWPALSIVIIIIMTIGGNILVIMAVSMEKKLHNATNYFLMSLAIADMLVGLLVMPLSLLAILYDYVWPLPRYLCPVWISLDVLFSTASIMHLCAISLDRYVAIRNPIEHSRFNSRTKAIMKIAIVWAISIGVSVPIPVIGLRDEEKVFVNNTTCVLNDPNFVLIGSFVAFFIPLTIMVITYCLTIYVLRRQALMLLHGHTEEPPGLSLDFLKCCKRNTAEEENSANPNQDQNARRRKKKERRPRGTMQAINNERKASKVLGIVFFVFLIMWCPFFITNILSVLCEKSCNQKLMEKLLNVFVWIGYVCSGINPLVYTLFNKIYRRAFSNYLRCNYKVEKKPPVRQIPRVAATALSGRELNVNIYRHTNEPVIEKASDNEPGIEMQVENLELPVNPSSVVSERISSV
Briefly: [125I]DOI binding to membranes of CHO cells expressing the human 5-HT2C receptor. The following applies: [125I]DOI radioligand, CHO cell membranes, room temperature 60 min; read-out: 5-HT2C Affinity Ki.

In another assay the target is T2, human 5-HT2C receptor (Homo sapiens, UniProt P28335).
T2 sequence (P28335 33-458): T1 sequence (P28335 33-458)
Briefly: 5-HT2C receptor-stimulated calcium mobilization (FLIPR) in CHO cells.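 On all read-outs here: Fluo-3-AM fluorescence read on FLIPR every 1 s, agonist added after 10 baseline reads, response taken as peak minus lowest raw fluorescence count.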 In kind it is cell-based. The following applies: for Emax: CHO, read-out: 5-HT2C Function Emax (%); for Emax / 5-HT2C Function Emax (%): percentage of the response observed with a maximally effective concentration of 5-HT; for EC50: calcium mobilization, CHO cells stably expressing human 5-HT2C, read-out: 5-HT2C Function EC50.

As for `NCC1Cc2cccc(C3CCCC3)c2O1` (racemic) [Example 8, (±)-(7-cyclopentyl-2,3-dihydro-1-benzofuran-2-yl)methylamine], in assay [1], the Ki was 9 nM. Further, at human 5-HT2C receptor, the Emax stood at 85% and the EC50 came out at 188 nM.

As for `Cc1ccccc1-c1cccc2c1CC(CN)O2` (single isomer, unassigned; (+)) [Example 5, (+)-1-[4-(2-methylphenyl)-2,3-dihydro-1-benzofuran-2-yl]methanamine], the Ki in assay [1] was 9 nM. On human 5-HT2C receptor, the Emax is 90% and the EC50 was determined as 208 nM.

On to `NCC1Cc2cccc(-c3cccnc3)c2O1` (racemic) [Example 170, (±)-[(7-pyridin-3-yl-2,3-dihydro-1-benzofuran-2-yl)methyl]amine], for which the Ki in assay [1] turned out to be 3.3 nM. Further, on human 5-HT2C receptor, the Emax stood at 90% and the EC50 was determined as 14 nM.

Turning to `CNCC1Cc2cc(F)cc(-c3ccccc3C)c2O1` (single isomer, unassigned; (+)) [Example 442, (+)-{[5-fluoro-7-(2-methylphenyl)-2,3-dihydro-1-benzofuran-2-yl]methyl}methylamine], in assay [1], the Ki came out at 0.2 nM. In addition, on human 5-HT2C receptor, the EC50 was determined as 6 nM and the “5-HT2C Function Emax (%)” value is recorded as 90%.

On to `Cc1ccccc1-c1cc(Cl)cc2c1OC(CN)C2` (single isomer, unassigned; (+)) [Example 96, (+)-1-[5-chloro-7-(2-methylphenyl)-2,3-dihydro-1-benzofuran-2-yl]methanamine], for which the Ki in assay [1] amounted to 1 nM. Further, at human 5-HT2C receptor, the EC50 was 27 nM and the “5-HT2C Function Emax (%)” value was 100%.

For the compound `NCC1Cc2cccc(-c3ccsc3)c2O1` (single isomer, unassigned; (+)) [Example 45, (+)-1-(7-thien-3-yl-2,3-dihydro-1-benzofuran-2-yl)methanamine], the Ki in assay [1] came to 2 nM. Besides, on human 5-HT2C receptor, the maximal effect (Emax) came to 90% and the EC50 came out at 5 nM.

For `Cc1ccccc1-c1cc(F)cc2c1OC(CN)C2` (single isomer, unassigned; (-)) [Example 106, (−)-1-[5-fluoro-7-(2-methylphenyl)-2,3-dihydro-1-benzofuran-2-yl]methanamine], the Ki in assay [1] was found to be 16 nM. At human 5-HT2C receptor, the EC50 came out at 91 nM and the “5-HT2C Function Emax (%)” value was found to be 50%.

On to `Cc1cc2c(c(-c3ccccc3C(F)(F)F)c1)OC(CN)C2` (racemic) [Example 287, (±)-({5-methyl-7-[2-(trifluoromethyl)phenyl[-2,3-dihydro-7-benzofuran-2-yl}methyl)amine], for which the Ki in assay [1] worked out at 0.13 nM. In addition, on human 5-HT2C receptor, the Emax came to 90% and the EC50 was found to be 21 nM.

As for `NCC1Cc2cc(F)cc(-c3ccc(Cl)cc3)c2O1` (racemic) [Example 200, (±)-{[5-fluoro-7-(4-chlorophenyl)-2,3-dihydro-1-benzofuran-2-yl]methyl}amine], the Ki in assay [1] is 12 nM. In addition, at human 5-HT2C receptor, the Emax was determined as 80% and the EC50 turned out to be 369 nM.

As to `COc1cc2c(c(-c3ccccc3OC)c1)OC(CN)C2` (racemic) [Example 359, (±)-{[7-(2-methoxyphenyl)-5-methoxy-2,3-dihydro-1-benzofuran-2-yl]methyl}amine], in assay [1], the Ki was determined as 10 nM. Moreover, on human 5-HT2C receptor, the Emax was 90% and the EC50 amounted to 8 nM.

For the compound `CNCC1Cc2ccc(F)c(-c3ccccc3Cl)c2O1` (racemic) [Example 402, (±)-{[6-fluoro-7-(2-chlorophenyl)-2,3-dihydro-1-benzofuran-2-yl]methyl}methylamine], the Ki in assay [1] is 0.24 nM. On human 5-HT2C receptor, the maximal effect (Emax) came out at 90% and the EC50 stood at 0.1 nM.

In the case of `CNCC1Cc2cc(F)cc(-c3cc(C)ccc3OC)c2O1` (racemic) [Example 457, (±)-{[5-fluoro-7-(2-methoxy-5-methylphenyl)-2,3-dihydro-1-benzofuran-2-yl]methyl}methylamine], in assay [1], the Ki came out at 38 nM. Further, at human 5-HT2C receptor, the Emax is 50% and the EC50 worked out at 740 nM.

As for `COc1cc2c(c(-c3ccccc3F)c1)OC(CN)C2` (racemic) [Example 356, (±)-{[7-(2-fluorophenyl)-5-methoxy-2,3-dihydro-1-benzofuran-2-yl]methyl}amine], the Ki in assay [1] amounted to 0.63 nM. Moreover, on human 5-HT2C receptor, the Emax turned out to be 100% and the EC50 turned out to be 63 nM.

For the compound `CNCC1Cc2cccc(-c3ccccc3Cl)c2O1` (racemic) [Example 409, (±)-[(N-methyl-1-[7-(2-chlorophenyl)-2,3-dihydro-1-benzofuran-2-yl]methanamine], the Ki in assay [1] came out at 3 nM. On human 5-HT2C receptor, the Emax is 90% and the half-maximal effective concentration (EC50) was determined as 22 nM.

Regarding `NCC1Cc2cccc(-c3ccccc3Cl)c2O1` (single isomer, unassigned; (-)) [Example 129, (−)-1-[7-(2-chlorophenyl)-2,3-dihydro-1-benzofuran-2-yl]methanamine], the Ki in assay [1] amounted to 0.3 nM. Moreover, at human 5-HT2C receptor, the Emax turned out to be 100% and the EC50 was 0.2 nM.

In the case of `Cc1ccc(Cl)cc1-c1cccc2c1OC(CN)C2` (racemic) [Example 168, (±)-{[7-(5-chloro-2-methylphenyl)-2,3-dihydro-1-benzofuran-2-yl]methyl}amine], the Ki in assay [1] came out at 2 nM. Also, at human 5-HT2C receptor, the maximal effect (Emax) was determined as 100% and the EC50 was determined as 1 nM.

`NCC1Cc2cccc(-c3cc(Cl)ccc3Cl)c2O1` (racemic) [Example 163, (±)-{[7-(2,5-dichlorophenyl)-2,3-dihydro-1-benzofuran-2-yl]methyl}amine]: in assay [1], the inhibition constant Ki was determined as 0.23 nM. On human 5-HT2C receptor, the Emax worked out at 90% and the EC50 was 2 nM.

For `NCC1Cc2c(cccc2-c2ccccc2)O1` (single isomer, unassigned; (+)) [Example 2, (+)-1-(4-phenyl-2,3-dihydro-1-benzofuran-2-yl)methanamine], in assay [1], the Ki is 16 nM. At human 5-HT2C receptor, the Emax came out at 90% and the EC50 was determined as 61 nM.

Take `CNCC1Cc2cccc(-c3ccc(OC)cc3)c2O1` (racemic) [Example 421, (±)-[(N-methyl-1-[7-(4-methoxyphenyl)-2,3-dihydro-1-benzofuran-2-yl]methanamine]: the Ki in assay [1] amounted to 1.5 nM. Also, on human 5-HT2C receptor, the Emax was found to be 70% and the EC50 is 93 nM.

For the compound `CNCC1Cc2cc(OC)cc(-c3cc(Cl)ccc3Cl)c2O1` (racemic) [Example 499, (±)-{[7-(2,5-dichlorophenyl)-5-methoxy-2,3-dihydro-1-benzofuran-2-yl]methyl}methylamine], the Ki in assay [1] worked out at 3.6 nM. At human 5-HT2C receptor, the Emax turned out to be 90% and the EC50 was 57 nM.

For `COc1cc2c(c(-c3cc(C)ccc3C)c1)OC(CN)C2` (racemic) [Example 370, (±)-{[7-(2,5-dimethylphenyl)-5-methoxy-2,3-dihydro-1-benzofuran-2-yl]methyl}amine], the Ki in assay [1] was 30 nM. Further, at human 5-HT2C receptor, the Emax was 80% and the EC50 worked out at 190 nM.

Regarding `CNCC1Cc2cccc(-c3cccc(F)c3)c2O1` (racemic) [Example 415, (±)-[(N-methyl-1-[7-(3-fluorophenyl)-2,3-dihydro-1-benzofuran-2-yl]methanamine], in assay [1], the inhibitory constant (Ki) was determined as 1.1 nM. For the same compound, at human 5-HT2C receptor, the Emax turned out to be 70% and the EC50 stood at 109 nM.

Consider `NCC1Cc2cc(F)cc(-c3ccncc3)c2O1` (racemic) [Example 209, (±)-[(5-fluoro-7-pyridin-4-yl-2,3-dihydro-1-benzofuran-2-yl)methyl]amine], for which, in assay [1], the Ki came to 2.3 nM. In addition, on human 5-HT2C receptor, the Emax was determined as 90% and the EC50 was 57 nM.

As a reminder, the Ki is the dissociation constant of the complex between target and ligand, obtained from inhibition or displacement. One may read the Emax as the greatest response seen or fitted, relative to the assay's reference. Usually EC50 stands for the midpoint of the concentration-response curve.

Source of the values: patent publication US7435837B2, “Dihydrobenzofuranyl alkanamine derivatives and methods for using same” (Wyeth, priority 2003, dated 2008).
